System: DREADDs-expressing PVN OXT neurons
Experiment: Whole-cell patch clamp of DREADDs-expressing PVN OXT neurons, CNO application
Assay type: cell-based, rat
Description: CVNs in NA and DMNX were identified by the presence of fluorescent tracer rhodamine and imaged using differential interference contrast optics and infrared illumination. Whole cell voltage clamp recordings from CVNs were done using Axopatch 200B and pClamp 8 software (Axon Instruments, Union city, USA), at a holding voltage of −80 mV at room temperature. The patch pipettes (2.5-5 MΩ) were filled with a solution consisting (in mM) of KCl (150), MgCl2 (4), EGTA (10), Na-ATP (2) and HEPES (10) or K-gluconic acid (150), HEPES (10), EGTA (10), MgCl2 (1) and CaCl2 (1) at a pH of 7.3 for recording inhibitory or excitatory events respectively. For PVN studies, forebrain slices were used for electrophysiology recordings.
A rat minimal oxytocin (OXT) promoter element from ˜530 bp to +33 relative to the origin of transcription of the OXT gene (UCSC genome browser on rat November 2004 assembly; chr3:118,193,690 to 118,194,252) was synthesized de novo and flanked by multiple cloning sites (Genscript, Piscataway, N.J.) (McCann et al., 2002; Petersson et al., 1996). […] Expression of these Cre-dependent vectors will only be initiated in neurons selectively expressing Cre as they contain silencing double-foxed inverse open reading frames (Sawchenko and Swanson, 1982). […]

SMILES: C[N+]1([O-])CCN(C2=Nc3cc(Cl)ccc3Nc3ccccc32)CC1 [CNO, clozapine-n-oxide]
- firing of PVN OXT neurons expressing DREADDs with CNO application (in words) (before CNO vs post CNO, 7 neurons): significantly increases
- action potential firing frequency of DREADDs-expressing PVN neurons after CNO application (within 5 min of CNO application, from 0.19±0.05 Hz before CNO, n=7): 0.75±0.14 Hz
